The values below are quoted from earlier work in patent publication US11739076B2, “Compound or its salt thereof targeting fibroblast activation protein, its preparation methods and its uses thereof” (Institute of Nuclear Energy Research Atomic Energy Council, …, priority 2021, dated 2023).

For one data set, the system named is tumor. The following applies: in vivo.

Consider `N#C[C@@H]1CCCN1C(=O)CNC(=O)c1ccnc2ccc(OCCCN3CCN(C(=O)CN4CCN(CC(=O)O)CCN(CC(=O)O)CCN(CC(=O)O)CC4)CC3)cc12` [FAPI-02], for which the “binding ratio of FAP and DDP4” value in the data set on FAP and DDP4 is reported as 45.
With `N#C[C@@H]1CC(F)(F)CN1C(=O)CNC(=O)c1ccnc2ccc(OCCCN3CCN(C(=O)CN4CCN(CC(=O)O)CCN(CC(=O)O)CCN(CC(=O)O)CC4)CC3)cc12` [FAPI-04], the “binding ratio of FAP and DDP4” value in the data set on FAP and DDP4 is on record as 750.
As to `CN(CCCN1CCN(C(=O)CN2CCN(CC(=O)O)CCN(CC(=O)O)CCN(CC(=O)O)CC2)CC1)c1ccc2nccc(C(=O)NCC(=O)N3CC(F)(F)C[C@H]3C#N)c2c1` [FAPI-46], the “tumor uptake and tumor-to-tissue ratio” value in the data set on tumor was “excellent tumor uptake and high tumor-to-tissue ratio”. In the data set on tumor (po), the “accumulation in the oral mucosa, salivary glands and thyroid glands” value is “does not”.
